From article PMC7853623, “Dose- and time-dependent tolerability and efficacy of organo-osmium complex FY26 and its tissue pharmacokinetics in hepatocarcinoma-bearing mice” (Metallomics: Integrated Biometal Science, 2020)

Tests used:
[1] = Body weight change after a single ip dose (Experiment 5); type: in vivo, C57Bl/6 mice; conditions: single ip dose 5, 10 or 20 mg/kg (FY26⋅Cl), 24 and 48 h, all mice
Procedure: (§1) Experiment 5 determined FY26⋅Cl uptake in mouse tumour and liver. Hepa1–6-bearing mice were randomly assigned to either treatment or control groups. They received a single ip injection of 5, 10, or 20 mg/kg of FY26⋅Cl or 0.1 M PBS (vehicle) at ZT6 (Table 1). The mice from pre-set subgroups were culled at 6, 24, or 48 h after injection. The subcutaneous tumours in both flanks, as well as liver, spleen, one kidney, an ileum, and a colon segment and brain were sampled and stored at −80°C.
(§2) Body weight data were expressed as % body weight measured on the first treatment day. Tumour weights for individually treated mice were expressed as % of the median control values, in order to determine % inhibition. Mean and standard error or median and interquartiles were computed for the different treatment groups and experimental conditions, i.e. drug timing and day of assessment. Groups were compared using parametric or non-parametric ANOVAs, respectively.

[2] = design: method as in ref 22 = [22]; 22. Abraham K. , In vitro and in vivo chronopharmacology of a new generation of an organometallic anticancer drug complex . Ph.D. thesis , University of Warwick , Coventry, UK , 2018 .; conditions: mice ref 22; cited from earlier work
[3] = Tolerability (survival, body weight) in Hepa1–6-bearing C57Bl/6 mice (Experiments 3 and 4); type: in vivo; conditions: Experiment 4 (FY26⋅Cl)
Procedure: (§3) Male CD1-Foxn1^nu or C57Bl/6 (B6) mice aged 5–10 weeks (Janvier, Le Genest St Isle, France) were housed in groups of three to four mice per cage in temperature-controlled (23 ± 1°C), ventilated (100 ± 10 l/min), and light-tight chronobiological animal facilities (Eurobioconcept, Bonneuil s/Marne, France). They were synchronized with an alternation of 12 h of light (L) and 12 h of darkness (D) (LD12:12), with light starting at 07:00, and had ad libitum access to food and water throughout all the experiments. In line with convention, onset of light and that of darkness are referred to as Zeitgeber time 0 (ZT0) and ZT12, respectively. After one or more weeks on this regimen and on the day prior to tumour inoculation, both flanks of each B6 mouse were shaved using clippers.
(§4) The mice, aged 8–10 weeks, were anesthetized under isoflurane and Hepa1–6-Per2-luc cells were injected subcutaneously in both postero-lateral flanks of each mouse. Mice were then inspected and weighed daily until experiment completion. Tumour sites were inspected daily until tumours became palpable and amenable to daily measurements of perpendicular diameters using callipers. Measurements were always taken at the same circadian time.
(§5) Mean daily tumour weight per mouse was calculated as the average volume of the right and left flank tumours according to (L × W^2)/2, where L is the larger and W the smaller perpendicular diameter, and 1 cm^3 corresponds to 1 g. Mice with an estimated tumour weight exceeding 10% of their body weight or those in poor general condition or loosing >15% of their starting body weight were euthanized, in compliance with our Home Office Project Licence specifications approved by the Animals in Science Committee and Animal Welfare and Ethical Review Body.
Experiment 3 aimed at assessing the efficacy and tolerability of the more soluble formulation of FY26⋅Cl in Hepa1–6-bearing C57Bl/6 mice. The mice were randomized to receive vehicle or FY26⋅Cl, at a cumulative dose of 60 mg/kg. Treated mice received ip injections of 20 mg/kg of FY26⋅Cl at ZT6 12, 14, and 17 days after tumour inoculation. Control mice received ip vehicle on the same days.
Experiment 4 aimed at confirming efficacy and optimizing timing and scheduling of the same cumulative dose of 60 mg/kg of FY26⋅Cl. Mice were randomized to receive either vehicle or FY26⋅Cl as four injections of 15 mg/kg at ZT6 or ZT18 on days 11, 14, 17, and 21.
For Experiments 1 and 2, FY26⋅PF6 was diluted in the vehicle, composed of 1% Tween 80 (Sigma-Aldrich, Gillingham, UK), 5% DMSO (Corning, New York, USA) and 94% of 0.9% saline (Prep room, Life Sciences, University of Warwick) under laminar flow. FY26⋅PF6 concentration was confirmed with ICP-MS. For Experiments 3–5, using FY26⋅Cl, a stock solution of 50 mg/ml FY26⋅Cl was prepared in 0.9% saline on the day of injection and diluted as required; the vehicle consisted of 0.9% saline.
as §2

[4] = design: method as in PMID 20977192; conditions: 24 h incubation at 37°C, pH 7.4 ref 12; cited from earlier work
[5] = system: Hepa1–6-Per2-luc hepatocarcinoma tumours; assay: Tumour volume after a single ip dose (Experiment 5); type: in vivo, C57Bl/6 mice; conditions: single ip dose 5, 10 or 20 mg/kg (FY26⋅Cl)
Procedure: as §4, §5
as §1, with “The subcutaneous tumours in both flanks, as well as liver, spleen, one kidney, an ileum, and a colon segment and brain were sampled and stored at −80°C.” left out

[6] = Comparative maximum aqueous solubility study (ICP-OES); type: physicochemical; conditions: doubly deionized water, 24 h shaking, ambient 18–20°C, mean ± SD of N = 3
Procedure: One to five milligrams of FY26⋅PF6 or FY26⋅I, and 180 mg of FY26⋅Cl were dispensed into Falcon tubes in triplicates, then 1 ml of doubly deionized water (DDIW) was added. The Falcon tubes were placed on a Vibrax VXB basic shaker (Sigma-Aldrich, Dorset, UK) for 24 h at a speed of […] (ambient temperature 18–20°C), and were checked at intervals (further solids were added if total saturation appeared to occur). The samples were filtered through syringe filters (PTFE, 0.45 µm, 4 mm) to remove any undissolved solids. The concentrations of Os in the solutions were measured using inductively coupled plasma-optical emission spectroscopy (ICP-OES) (Agilent, Stockport, UK).
Analyses of FY26 solutions were carried out on a Perkin-Elmer (optical emission spectrometer) Optima 5300 DV instrument. All samples and standards were prepared fresh on the day in DDIW with distilled HNO3 (3.2%), thiourea (5 mM), and ascorbic acid (0.1 g/l). The osmium standard was diluted to the following concentrations for the calibration curve: 0, 25, 50, 100, 200, 400, 600, 800, and 1000 ppb. The samples were diluted by serial dilutions of typically 1 in 10 until their concentrations fitted within the calibration range and % total dissolved solids were below 0.2%. Samples were prepared in triplicates and the Os optical emissions at 228.226 and 225.585 nm were detected and integrated.

[7] = Tolerability in Hepa1–6-bearing nude mice (Experiments 1 and 2); type: in vivo, CD1-Foxn1^nu mice
Procedure: as §3, §4, §5
Experiment 1 aimed at the determination of a therapeutic dose of the less soluble FY26⋅PF6 formulation. […]
(§6) Body weight data were expressed as % body weight measured on the first treatment day. Tumour weights for individually treated mice were expressed as % of the median control values, in order to determine % inhibition. […]

Hepa1–6 cells = system: Hepa1–6 cells; design: method as in ref 21, 22 = [21]; 21. Abraham K. , Dallmann R. , Ballesta A. , Romero-Canelon I. , Sadler P. J. , Lévi F. A. , In v itro circadian synchronisation of mouse hepatocarcinoma cells with 24 h temperature cycles uncovers in || [22]; 22. Abraham K. , In vitro and in vivo chronopharmacology of a new generation of an organometallic anticancer drug complex . Ph.D. thesis , University of Warwick , Coventry, UK , 2018 .; conditions: Hepa1–6 cells synchronized with a 24-h periodic temperature cycle ref 21, 22; cited from earlier work
[8] = system: 809 cancer cell line screen; design: method as in PMID 26162681; conditions: on average, 809 cancer cell lines ref 18; cited from earlier work
A2780 cells = system: A2780 cells; design: method as in PMID 26162681; conditions: previously reported ref 18; cited from earlier work
[9] = system: HCT-116 human colon cancer xenografts; design: method as in ref 13 = [13]; 13. Shnyder S. D. , Fu Y. , Habtemariam A. , van Rijt S. H. , Cooper P. A. , Loadman P. M. , Sadler P. J. , Anti-colorectal cancer activity of an organometallic osmium arene azopyridine complex , Med.; conditions: HCT-116 xenografts in mice ref 13; cited from earlier work
[10] = system: Hepa1–6-Per2-luc hepatocarcinoma tumours; assay: Antitumour efficacy in Hepa1–6-bearing nude mice (Experiments 1 and 2); type: in vivo, CD1-Foxn1^nu mice
Procedure: as §3
Mouse hepatocarcinoma (Hepa1–6, ATCC® CRL-1830™) was kindly provided by S. Dulong (INSERM U935, Villejuif, France), following their stable transfection with the Per2-luc [pLV7-Bsd-P(Per2)-dLuc] reporter constructs within the C5SYS ERASYSBIO+ project (FP7). Mouse Hepa1–6-Per2-luc cells were cultured in 15-cm Petri dishes until they reached 80% confluency. On the day of tumour inoculation, the cells were trypsinized and resuspended at a concentration of 10^6 cells/100 µl in PBS solution alone (Experiments 1 and 2) or with 1:1 MatriGel™ (Corning, Flintshire, UK) (Experiments 3–5) and kept on ice until injected.
as §4, §5
Experiment 1 aimed at the determination of a therapeutic dose of the less soluble FY26⋅PF6 formulation. Hepa1–6-bearing nude mice were randomly assigned to be injected intraperitoneally (ip) with vehicle (controls), or 40, 60, or 80 mg/kg/injection of FY26⋅PF6 at ZT6 (in the middle of the light span) every other day for 12 days (Table 1).
Experiment 2 aimed at assessing whether FY26⋅PF6 circadian timing would influence toxicity or efficacy in the nude mouse model. The animals were randomly assigned to receive ip vehicle or FY26⋅PF6 (50 mg/kg/injection) at ZT6 or at ZT18 (four controls and six treated mice per ZT) every other day for 11 days (six injections; cumulative dose, 300 mg/kg). […]
as §6

[11] = system: A2780 ovarian cancer cells over MRC-5 fibroblasts; design: method as in PMID 26397305; conditions: applied synergistically with L-buthionine sulfoximine (L-BSO) ref 19; cited from earlier work
[12] = design: method as in PMID 9144445; conditions: cisplatin in BSO-treated mice ref 36; cited from earlier work

SMILES: CN(C)c1ccc(N=Nc2ccccn2)cc1.Cc1ccc(C(C)C)cc1.[I-].[Os+2] [FY26, [Os^II(ɳ^6-p-cym)(PhAzPy-NMe2)I]^+]
- body weight changes [1]: < 5%
- best-tolerated dosing time [2]: near the middle of the light span
- body-weight loss according to dosing time ([3]; 15 mg/kg ip × 4, ZT18 versus ZT6): clearly worse at ZT18
- survival rate ([3]; 15 mg/kg ip × 4 at ZT6): 60%
- survival rate ([3]; 15 mg/kg ip × 4 at ZT18): 30%
- hydrolysis in aqueous solution [4]: does not readily hydrolyse
- changes in tumour volumes [5]: No changes

SMILES: CN(C)c1ccc(N=Nc2ccccn2)cc1.Cc1ccc(C(C)C)cc1.[I-].[I-].[Os+2] [FY26⋅I]
- maximum aqueous solubility [6]: 1.29 (±0.01) mM

SMILES: CN(C)c1ccc(N=Nc2ccccn2)cc1.Cc1ccc(C(C)C)cc1.F[P-](F)(F)(F)(F)F.[I-].[Os+2] [FY26⋅PF6, [Os^II(ɳ^6-p-cym)(PhAzPy-NMe2)I]PF6]
- toxicity of the higher dose ([7]; Experiment 1, 80 mg/kg/injection, all mice euthanized after up to five injections (cumulative 400 mg/kg)): clearly too toxic
- body weight loss dose–response ([7]; Experiment 1, 40, 60 or 80 mg/kg/injection ip at ZT6): linear dose–response relation
- body-weight loss at ZT6 as compared to ZT18 ([7]; Experiment 2, 50 mg/kg/injection ip): less pronounced
- variation of IC50 according to timing of in vitro drug exposure (Hepa1–6 cells): 40%
- activity relative to cisplatin [8]: 49 times
- ROS induction (A2780 cells): did induce an increase in ROS
- induction of apoptosis (A2780 cells): did not induce apoptosis
- maximum aqueous solubility [6]: 0.0201 (±0.0007) mM
- effect on xenograft growth [9]: capable of delaying the growth
- tumour inhibition efficacy ranking ([10]; Experiment 1, 40 mg/kg/injection ip at ZT6 every other day): intermediate
- tumour inhibition efficacy ranking ([10]; Experiment 1, 60 mg/kg/injection ip at ZT6 every other day): least
- tumour inhibition efficacy ranking ([10]; Experiment 1, 80 mg/kg/injection ip at ZT6 every other day): highest
- efficacy according to dosing time ([10]; Experiment 2, 50 mg/kg/injection ip, ZT6 versus ZT18): slightly better efficacy at ZT6
- tumour growth ([10]; Experiment 2, 50 mg/kg/injection ip, after the sixth dose): slowed down transiently
- selectivity towards A2780 over MRC-5 fibroblasts [11]: up to 64 times

SMILES: N.N.[Cl][Pt][Cl] [cisplatin]
- reduction in average survival rate [12]: 5.7 fold
